From paper PMC7464159, “Triple Negative Breast Cancer and Breast Epithelial Cells Differentially Reprogram Glucose and Lipid Metabolism upon Treatment with Triterpenic Acids” (Biomolecules, 2020)
Like-named read-outs stand apart in the source and are kept apart here.

Tests used:
MDA-MB-231 cells [1] = system: MDA-MB-231 cells; parameters: method as in PMID 28213701; conditions: cited from earlier work
MDA-MB-231 cells [2] = system: MDA-MB-231 cells; parameters: method as in PMID 28213701; conditions: MDA-MB-231, 24 h incubation; read-out: IC50 reported in the literature; cited from earlier work
MCF-10A cells [3] = assay: MTT cell viability assay; format: cell-based; conditions: Homo sapiens, mean ± SD, read-out: IC50 cell viability inhibition
Method: (§1) Cells were cultured in 96-well plates at 2 × 10^5 cells/mL (100 µL per well) and treated the following day with either BA or UA (0.5–50 µM), for 24 h, 48 h and 72 h. Vehicle solvent control cells received DMSO (0.25% v/v). Cell viability was estimated by the 3-(4,5-dimethylthiazol-2-yl)-2,5-diphenyltetrazolium bromide (MTT) assay as previously described by. After treatment incubation, 20 μL of MTT stock solution was added to each well (final concentration 0.5 mg/mL), and plates were incubated at 37 °C, for 4 h. Then, the medium was removed, and the formed formazan crystals were dissolved using a DMSO/ethanol (1:1) solution. Finally, absorbance of the formed product was measured at 570 nm using a microplate reader (MultiSkan FC, Thermo Fisher Scientific, Rochester, NY, USA). The IC50, defined as the concentration necessary to cause 50% inhibition of cell viability, was calculated using GraphPad Prism 5.0 (GraphPad Prism Software Inc., San Diego, CA, USA), by plotting the percentage of cell viability as a function of sample concentration logarithm. Three independent experiments were performed for each treatment.

MDA-MB-231 cells [4] = assay: MTT cell viability assay; format: cell-based; conditions: Homo sapiens, mean ± SD, read-out: IC50 cell viability inhibition
Method: as §1

MCF-10A cells [5] = assay: 1H NMR analysis of organic cell extracts (lipids); format: cell-based, human; conditions: for levels of triglycerides: vs control cells
Method: (§2) MDA-MB-231 and MCF-10A cells were seeded in 10-cm-diameter Petri dishes at a density of 6 × 10^5 cells/mL (10 mL per dish) and cultured for 24 h at 37 °C. Cells were then incubated for 48 h with BA (5 and 15 µM) or UA (10 and 20 µM). Vehicle solvent control cells received DMSO (0.10% v/v). Samples were collected immediately after 48 h incubation or, to assess cellular recovery, medium was replaced with fresh growth medium (without TAs), and cells were incubated for additional 24 h before collection (48 + 24 h samples). Four independent assays were performed.
(§3) After incubation, culture medium was collected and centrifuged (1000× g, 5 min) and the supernatant stored at −80 °C until analysis. Culture medium without cells was placed under the same conditions and collected. Cell extraction was performed as described by Carrola et al.. Briefly, cells were washed four times with PBS and extracted with a mixture of methanol:chloroform:water (1:1:0.7). The resulting polar and organic phases were collected and then dried under vacuum or under a stream of nitrogen gas, respectively. All samples were stored at −80 °C and, at the time of analysis, dried polar extracts were reconstituted in 600 µL of deuterated phosphate buffer (100 mM, pH 7.4) containing 0.1 mM TSP-d4, while organic extracts were reconstituted in deuterated chloroform containing 0.03% TMS. Regarding medium samples, 540 μL were mixed with 60 μL of D2O containing 0.25% TSP-d4. Prior to analysis, 550 μL of each sample were transferred to 5 mm NMR tubes.
(§4) ^1H NMR spectra of all samples were acquired on a Bruker Avance III HD 500 NMR spectrometer (University of Aveiro, Portuguese NMR Network) operating at 500.13 MHz for ^1H observation equipped with a 5 mm TXI probe. Standard 1D spectra (Bruker pulse programs ‘noesypr1d’, with water suppression, for medium samples and aqueous extracts, and ‘zg’ for organic extracts) were recorded with a 7002.8 Hz spectral width, 32 k data points, a 2 s relaxation delay and 512 scans. Spectral processing comprised exponential multiplication with 0.3 Hz line broadening, zero filling to 64 k data points, manual phasing, baseline correction, and chemical shift calibration to the TSP or TMS signal at 0 ppm. 2D ^1H-^1H total correlation (TOCSY) spectra, ^1H-^13C heteronuclear single quantum correlation (HSQC) spectra and J-resolved spectra were also registered for selected samples to assist spectral assignment. Metabolites were identified with the support of 2D spectra and the spectral reference databases BBIOREFCODE-2-0-0 (Bruker Biospin, Rheinstetten, Germany) and HMDB [28]. Selected signals were then integrated using the AmixViewer software […] (version 3.9.14, Bruker BioSpin, Rheinstetten, Germany) and normalized by the total spectral area. The magnitude of each metabolite change was assessed through the percentage of variation (and its respective error) in exposed samples relatively to controls, and through the effect size (ES) adjusted for small sample numbers (and respective standard error). Metabolite variations with absolute ES greater than 0.8 were expressed in a heatmap, colored as a function of the percentage of variation, employing the R statistical software.

MDA-MB-231 cells [6] = assay: 1H NMR analysis of organic cell extracts (lipids); format: cell-based, human; conditions: 48 h; for levels of neutral lipids (cholesteryl esters and triglycerides): vs control; for plasmalogen lipids: high exposure concentration
Method: as §2, §3, §4

MCF-10A cells [7] = assay: Cell cycle analysis by flow cytometry; format: cell-based, human; conditions: 48 h
Method: (§5) MDA-MB-231 and MCF-10A cells were seeded in six-well plates at a density of 4 × 10^5 cells/mL (2 mL per well) and cultured for 24 h at 37 °C. […] Vehicle solvent control cells received DMSO (0.10% v/v). Then, cells were trypsinized, collected, washed with phosphate buffered saline (PBS) and fixed with 85% cold ethanol. At the time of analysis, cells were centrifuged at 300× g for 5 min at 4 °C and resuspended in PBS, before being treated with RNase (50 µg/mL) and propidium iodide staining solution (50 µg/mL) and incubated, in the dark, for at least 20 min at room temperature. Propidium iodide-stained cells were analyzed on a Coulter EPICS XL (Beckman Coulter, Hialeah, FL, USA) flow cytometer. The results were acquired using the SYSTEM II software (version 3.0 Beckman-Coulter ®, Brea, CA, USA). Four replicates were performed for each treatment, and for each sample at least 5000 nuclei were acquired. Analysis of cell cycle distribution was performed using the FlowJo software (Tree Star, Ashland, USA).

MDA-MB-231 cells [8] = assay: Cell cycle analysis by flow cytometry; format: cell-based, human; conditions: 48 h
Method: as §5

MCF-10A cells [9] = system: MCF-10A cells; parameters: method as in PMID 29802332, PMID 30684465; conditions: previous studies; cited from earlier work

C=C(C)[C@@H]1CC[C@]2(C(=O)O)CC[C@]3(C)[C@H](CC[C@@H]4[C@@]5(C)CC[C@H](O)C(C)(C)[C@@H]5CC[C@]43C)[C@@H]12 [BA, betulinic acid]
lactate levels and expression of glycolytic enzymes (MDA-MB-231 cells [1]; BA up to 20 µM, 24 h): did not alter | IC50 (MDA-MB-231 cells [2]): 30.6 µM | IC50 (MCF-10A cells [3]; 24 h): 22.4 ± 6.49 µM | IC50 (MCF-10A cells [3]; 48 h): 11 ± 1.83 µM | IC50 (MCF-10A cells [3]; 72 h): 2.38 ± 1.36 µM | IC50 (MDA-MB-231 cells [4]; MDA-MB-231, 24 h): 31.3 ± 5.94 µM | IC50 (MDA-MB-231 cells [4]; MDA-MB-231, 48 h): 13.2 ± 2.3 µM | IC50 (MDA-MB-231 cells [4]; MDA-MB-231, 72 h): 8.39 ± 0.98 µM | levels of glycerophospholipids (including plasmalogen) (MCF-10A cells [5]; BA): decreased levels | relative amount of free cholesterol (MCF-10A cells [5]; BA): increased | levels of triglycerides (MCF-10A cells [5]): increased levels | levels of neutral lipids (cholesteryl esters and triglycerides) (MDA-MB-231 cells [6]): decreased significantly | total glycerophospholipids and free cholesterol (MDA-MB-231 cells [6]; BA): increased | plasmalogen lipids (MDA-MB-231 cells [6]): decreased | cells at the G0/G1 phase (MCF-10A cells [7]; 15 µM, vs control): decrease in the G0/G1 phase | cells at the G2 phase (MCF-10A cells [7]; 15 µM, vs control): cell cycle arrest at the G2 phase | cells at the S phase (MCF-10A cells [7]; 15 µM, vs control): increase in the S phase | cell population at the S phase (MDA-MB-231 cells [8]; 15 µM, vs non-exposed control): decreased cell population | cells at the G2 phase (MDA-MB-231 cells [8]; 15 µM, vs non-exposed control): significant accumulation | influence on MCF-10A cells viability (MCF-10A cells [9]): no influence

C[C@H]1[C@H](C)CC[C@]2(C(=O)O)CC[C@]3(C)C(=CC[C@@H]4[C@@]5(C)CC[C@H](O)C(C)(C)[C@@H]5CC[C@]43C)[C@H]12 [UA, ursolic acid]
expression of glycolytic enzymes (HK2 and PKM2) and ATP content (MDA-MB-231 cells [1]; UA 5–20 µM): decreased | IC50 (MDA-MB-231 cells [2]): 22.9 µM | IC50 (MCF-10A cells [3]; 24 h): 37.9 ± 8.93 µM | IC50 (MCF-10A cells [3]; 48 h): 18.7 ± 3.27 µM | IC50 (MCF-10A cells [3]; 72 h): 21.5 ± 4.55 µM | IC50 (MDA-MB-231 cells [4]; MDA-MB-231, 24 h): 24.5 ± 4.61 µM | IC50 (MDA-MB-231 cells [4]; MDA-MB-231, 48 h): 17.2 ± 0.86 µM | IC50 (MDA-MB-231 cells [4]; MDA-MB-231, 72 h): 17.7 ± 2.81 µM | levels of triglycerides (MCF-10A cells [5]): increases | levels of neutral lipids (cholesteryl esters and triglycerides) (MDA-MB-231 cells [6]): decreased levels | plasmalogen lipids (MDA-MB-231 cells [6]): decreased levels | effect on cell cycle phases (MCF-10A cells [7]; 20 µM, vs untreated): no statistical differences | effect on cell cycle phases (MDA-MB-231 cells [8]; 20 µM, vs untreated): no statistical differences
